Measured values reported in patent US20090227533A1, “miR-34 Regulated Genes and Pathways as Targets for Therapeutic Intervention” (priority 2007, published 2009).

Experiments:
lung cancer cells (A549) = details: cited from earlier work
H460 lung cancer cells = test: Alamar Blue proliferation assay with pair-wise miRNA combinations; type: cell-based, human
Description: miRNAs function in multiple pathways controlling multiple cellular processes. Cancer cells frequently show aberrations in several different pathways, which determine their oncogenic properties. […] The inventors assessed the efficacy of pair-wise miRNA combinations, administering hsa-miR-34a concurrently with either hsa-miR-124a, hsa-miR-126, hsa-miR-147, hsa-let-7b, hsa-let-7c or hsa-let-7g (Pre-miR™ miRNA, Ambion cat. no. AM17100). H460 lung cancer cells were transiently reverse-transfected in triplicate with each miRNA at a final concentration of 300 pM, resulting in 600 pM of total oligonucleotide. For negative controls, 600 pM of Pre-miR™ microRNA Precursor Molecule-Negative Control #2 (Ambion cat. no. AM17111) were used. To correlate the effect of various combinations with the effect of the sole miRNA, each miRNA at 300 pM was also combined with 300 pM negative control miRNA. Reverse transfection was carried out using the following parameters: 7,000 cells per 96 well, 0.15 μl Lipofectamine™ 2000 (Invitrogen) in 20 μl OptiMEM (Invitrogen), 100 μl total transfection volume. […] Cells were harvested 72 hours after transfection and subjected to Alamar Blue assays (Invitrogen). Percent proliferation values from the Alamar Blue assays were normalized to those obtained from cells treated with 600 pM negative control miRNA. Data are expressed as % proliferation relative to negative control miRNA-treated cells (Table 8, FIG. 3).
Additive activity of pair-wise combinations (e.g., hsa-miR-34a plus hsa-miR-147) is defined as an activity that is greater than the sole activity of each miRNA (e.g., the activity of hsa-miR-34a plus hsa-miR-147 is greater than that observed for hsa-miR-34a plus NC and the activity of hsa-miR-34a plus hsa-miR-147 is greater than that observed for hsa-miR-147 plus NC). Synergistic activity of pair-wise combinations is defined as an activity that is greater than the sum of the sole activity of each miRNA (e.g., the activity of hsa-miR-34a plus hsa-let-7g is greater than that observed for the sum of the activity of hsa-miR-34a plus NC and the activity of hsa-let-7g plus NC). […] The combinatorial use of miRNAs represents a potentially useful therapy for cancer and other diseases.

H226 cells = test: Alamar Blue proliferation assay, lung cancer cells (electroporation); type: cell-based, human; details: hsa-miR-34a (head: 30 nM), electroporation, 72 hours, normalized to NC (100%)
Description: The inventors assessed the therapeutic effect of hsa-miR-34a for lung cancer by using eight individual lung cancer cell lines. To measure cellular proliferation of lung cancer cells, the following non-small cell lung cancer (NSCLC) cells were used: cells derived from lung adenocarcinoma (A549, H522, Calu-3, HCC2935), cells derived from lung squamous cell carcinoma (H226), cell derived from lung adenosquamous cell carcinoma (H596), cells derived from lung bronchioalveolar carcinoma (H1650), and cells derived from lung large cell carcinoma (H460). Synthetic hsa-miR-34a (Pre-miR™-hsa-miR-34a, Ambion cat. no. AM17100) or negative control (NC) miRNA (Pre-miR™ microRNA Precursor Molecule-Negative Control #2; Ambion cat. no. AM17111) was delivered via lipid-based transfection into A549, H522, H596, Calu-3, HCC2935, H1650, H460 cells and via electroporation into H226 cells.
Lipid-based reverse transfections were carried out in triplicate according to a published protocol (Ovcharenko et al., 2005) and the following parameters: cells (5,000-12,000 per 96 well), 0.1-0.2 μl Lipofectamine™ 2000 (cat. no. 11668-019, Invitrogen Corp., Carlsbad, Calif., USA) in 20 μl OptiMEM (Invitrogen), 30 nM final concentration of miRNA in 100 μl. Electroporation of H226 cells was carried out using the BioRad Gene Pulser Xcell™ instrument (BioRad Laboratories Inc., Hercules, Calif., USA) with the following settings: 5×10^6 cells with 5 μg miRNA in 200 μl OptiMEM (1.6 μM miRNA), square wave pulse at 250 V for 5 ms. Electroporated H226 cells were seeded at 7,000 cells per 96-well in a total volume of 100 μl. All cells except for Calu-3 cells were harvested 72 hours post transfection or electroporation for assessment of cellular proliferation. Calu-3 cells were harvested 10 days post transfection. Proliferation assays were performed using Alamar Blue (Invitrogen) following the manufacturer's instructions. As a control for inhibition of cellular proliferation, siRNA against the motor protein kinesin 11, also known as Eg5, was used. […]

[1] = test system: cervical cancer cells (HeLa); details: cited from earlier work

With “hsa-miR-34a: synthetic miRNA; mature sequence UGGCAGUGUCUUAGCUGGUUGUU (MIMAT0000255; SEQ ID NO:1) (synthetic miRNA, chemistry not given here)” as the substance, how does the proliferation (lung cancer cells (A549)) read?
The proliferation was “inhibits the proliferation”.

And the reduction of proliferation (H460 lung cancer cells; 300 pM hsa-miR-34a plus 300 pM negative control miRNA)?
The reduction of proliferation was 0.42%.

What about the “% proliferation” value (H460 lung cancer cells; each miRNA 300 pM (600 pM total), 72 h, normalized to 600 pM negative control miRNA) of the same substance?
The value was 99.58%.

What about the “% proliferation” value (H226 cells) of the same substance?
Its value is 89.50%.

What about the proliferation [1] of the same substance?
The proliferation was “inhibits the proliferation”.
